Key:
[1] = system: human epidermal keratinocytes; assay: Human epidermal keratinocyte proliferation test (MTT method, MCDB153 medium); format: cell-based; settings: concentration used 50 · mol/L, 2 days culture, medium free of hair growth components = 100
Protocol: (1) Using a serum-free proliferation medium HuMedia-KB2 (purchased from KURABO INDUSTRIES LTD., KK-2350S) added with a proliferation additive HuMedia-KG (purchased from KURABO INDUSTRIES LTD., KK-6150), human epidermal keratinocytes were plated to a cell seeding density of 2.0×10^4 cells/well in a 96 well plate.
(§1) (2) After culturing at 37° C. in a 5% carbon dioxide gas (CO2) atmosphere for one day, the medium was removed, and the cells were washed with an evaluation medium used for cell proliferation tests, i.e., MCDB153 medium. Then, various test components were dissolved in a similar evaluation medium and added to various concentrations (* mol/l).
(3) Subsequently, the cells were further cultured at 37° C. in a 5% carbon dioxide gas (CO2) atmosphere for 2 days, and the human epidermal keratinocyte proliferation rate was measured by the MTT method.
(§2) (4) The relative evaluation value was calculated based on the rate obtained using a medium free of various hair growth components as 100, and the value was taken as the proliferation rate.

hair papilla cells = assay: Hair papilla cell proliferation test (MTT method); format: cell-based; settings: concentration used 100 · mol/L; 2 days culture; DMEM with 1% FCS; medium free of hair growth components = 100
Protocol: (1) Using a proliferation medium PCGM: Papilla Cell Growth Medium (purchased from TOYOBO CO., LTD., TPGM-250), hair papilla cells were plated to a cell seeding density of 1.0×10^4 cells/well in a 96 well plate.
as §1, with “DMEM (Dulbecco's Modified Eagle's Medium) medium containing 1% FCS (fetal bovine serum).” for “MCDB153 medium.”
(3) Subsequently, the cells were further cultured at 37° C. in a 5% carbon dioxide gas (CO2) atmosphere for 2 days, and the hair papilla cell proliferation rate was measured by the MTT method.
as §2

[2] = Solubility of glutamyllysine powder in solvents; format: physicochemical

Compound: Nc1cc(N2CCCCC2)nc(N)[n+]1[O-] [minoxidil]
- keratinocyte proliferation rate (%) [1]: 117%
- hair papilla cell proliferation rate (%) (hair papilla cells): 113%

Compound: NC(CCCCNC(=O)CCC(N)C(=O)O)C(=O)O (centres unmarked) [glutamyllysine, Epsilon-N-(gamma-glutamyl)lysine]
- keratinocyte proliferation rate (%) [1]: 131%
- solubility in alkaline water, acidic water ([2]; alkaline water, acidic water and the like): soluble
- solubility in organic solvents ([2]; various organic solvents such as methanol, ethanol, acetone): hardly soluble or insoluble
- hair papilla cell proliferation rate (%) (hair papilla cells): 124%

Compound: Nc1ncnc2c1ncn2[C@@H]1O[C@H](CO)[C@@H](O)[C@H]1O [adenosine]
- keratinocyte proliferation rate (%) [1]: 118%
- hair papilla cell proliferation rate (%) (hair papilla cells): 99%
